Here are results for 1 molecule from patent US5656662A, “Synthesis of optically pure 4-alkenyl- or 4-alkanyl-2-hydroxytetronic acids” (The Ohio State University Research Foundation, priority 1995, dated 1997).

What all share (format): cell-based
The test system of one test is LTB4. Description: LTB4 production by purified human monocytes. More on the design: key: NE: No effect; INHIB: Inhibition; STIM: Stimulation; IC40: 40% Inhibitory Concentration; EC50: 50% Effective Concentration; TC: Tolerated Concentration; IA: Interferes with Assay. Here is the method:
This assay measures the ability of test compounds to modulate the amount of LTB4 produced by the oxygenation of arachidonic acid by 5-lipooxygenase produced by purified human monocytes. Compounds are tested for their ability to downregulate the secretion of LTB4 from activated monocytes, or upregulate secretion of LTB4 from unstimulated monocytes. Test compounds are incubated for ninety minutes with purified human monocytes at four dilutions over a range of three log10 concentrations. Where appropriate, zymosan is used to stimulate the monocytes.
The level of LTB4 in the resultant supernatants is quantitated by immunoassay performed in a 96 well format. LTB4 levels modulated by unknown compounds are determined by interpolation from a standard curve. All compounds are tested in duplicate with controls and standards.

A further test concerns IL-8. Briefly: IL-8 secretion from purified human monocytes. The arrangement: key: NE: No effect; INHIB: Inhibition; STIM: Stimulation; IC40: 40% Inhibitory Concentration; EC50: 50% Effective Concentration; TC: Tolerated Concentration; IA: Interferes with Assay. Here is the method:
This assay determines the effect of test compounds on the secretion of IL-8 from purified human monocytes. Compounds are tested for their ability to downregulate the production of IL-8 in activated monocytes, or upregulate secretion of IL-8 in unstimulated monocytes. Test compounds are incubated for sixteen hours with purified human monocytes at four dilutions over a range of three log10 concentrations. Where appropriate, lipopolysaccharide (LPS) is used to stimulate the monocytes.
The level of IL-8 in the resultant supernatants is quantitated in a solid phase Enzyme-linked Immunoassay (EIA) performed in a 96 well format. IL-8 present in the samples is captured by a specific monoclonal antibody immobilized on the well, and probed with an anti-IL-8 polyclonal antibody conjugated to horseradish peroxidase, followed by an appropriate substrate. The levels of IL-8 are determined by interpolation of the resultant color change in the substrate from a standard curve. All supernatants are tested in duplicate with controls and standards.

For the next test, the system named is peptidoleukotrienes. Description: Peptidoleukotriene production by purified human monocytes. More on the design: key: NE: No effect; INHIB: Inhibition; STIM: Stimulation; IC40: 40% Inhibitory Concentration; EC50: 50% Effective Concentration; TC: Tolerated Concentration; IA: Interferes with Assay. The method, then: This procedure measures the ability of test compounds to modulate the amount of peptidoleukotrienes produced by purified human monocytes. Compounds are tested for their ability to downregulate the secretion of peptidoleukotrienes from activated monocytes, or upregulate secretion of peptidoleukotrienes from unstimulated monocytes. Test compounds are incubated for ninety minutes with purified human monocytes at four dilutions over a range of three log10 concentrations. Where appropriate, zymosan is used to stimulate the monocytes.
The level of peptidoleukotrienes in the resultant supernatants is quantitated by immunoassay performed in a 96 well format. Peptidoleukotriene levels modulated by unknown compounds are determined by interpolation from a standard curve. All compounds are tested in duplicate with controls and standards.

The next test has as its system phospholipase A2. Description: Cellular phospholipase A2 activity in human monocytes. More on the design: key: NE: No effect; INHIB: Inhibition; STIM: Stimulation; IC40: 40% Inhibitory Concentration; EC50: 50% Effective Concentration; TC: Tolerated Concentration; IA: Interferes with Assay. Here is the method:
This assay measures the ability of test compounds to modulate the activity of the cellular phospholipase A2 in human monocytes. Compounds are tested for their ability to inhibit stimulate phospholipase A2 activity or activate basal activity in unstimulated monocytes. Test compounds are incubated for ninety minutes with purified human monocytes at four dilutions over a range of three log10 concentrations. Where appropriate, zymosan is used to stimulate the monocytes.
Monocytes with the arachidonyl moiety of phospholipids radiolabelled are utilized in a 96 well format. Percent release of radiolabelled fatty acid into the extracellular medium is quantified by liquid scintillation counting. All compounds are tested in duplicate with controls and standards.

The subject of the next test is IL-6. Briefly: IL-6 secretion from purified human monocytes. More on the design: key: NE: No effect; INHIB: Inhibition; STIM: Stimulation; IC40: 40% Inhibitory Concentration; EC50: 50% Effective Concentration; TC: Tolerated Concentration; IA: Interferes with Assay. The method, then:
This assay determines the effect of test compounds on the secretion of IL-6 from purified human monocytes. Compounds are tested for their ability to downregulate the production of IL-6 in activated monocytes, or upregulate secretion of IL-6 in unstimulated monocytes. Test compounds are incubated for sixteen hours with purified human monocytes at four dilutions over a range of three log10 concentrations. Where appropriate, lipopolysaccharide (LPS) is used to stimulate the monocytes.
The level of IL-6 in the resultant supernatants is quantitated in a solid phase Enzyme-linked Immunoassay (EIA) performed in a 96 well format. IL-6 present in the samples is captured by a specific monoclonal antibody immobilized on the well, and probed with an anti-IL-6 polyclonal antibody conjugated to horseradish peroxidase, followed by an appropriate substrate. The levels of IL-6 are determined by interpolation of the resultant color change in the substrate from a standard curve. All supernatants are tested in duplicate with controls and standards.

A further test deals with PGE2. Description: PGE2 production by purified human monocytes. More on the design: key to EFFECT on PGE2: NE: No effect; INHIB: Inhibition; STIM: Stimulation; IC40: 40% Inhibitory Concentration; EC50: 50% Effective Concentration; TC: Tolerated Concentration; IA: Interferes with Assay. Here is the method: This procedure measures the ability of test compounds to modulate the amount of PGE2 produced by purified human monocytes. Compounds are tested for their ability to downregulate the secretion of PGE2 from activated monocytes, or upregulate secretion of PGE2 from unstimulated monocytes. Test compounds are incubated for ninety minutes with purified human monocytes at four dilutions over a range of three log10 concentrations. Where appropriate, zymosan is used to stimulate the monocytes.
The level of PGE2 in the resultant supernatants is quantitated by immunoassay performed in a 96 well format. PGE2 levels modulated by unknown compounds are determined by interpolation from a standard curve. All compounds are tested in duplicate with controls and standards.

Turning to `CCCCCCCCCCCCCC/C=C\CC[C@@H]1OC(=O)C(O)=C1O` [(S)-3,4-Dihydroxy-5-[(Z)-3-octadecenyl]-2(5H)-furanone], the “EFFECT on LTB4” value in the test with LTB4 (STIMULATED) and with LTB4 (UNSTIMULATED) was “NE” throughout. The “EFFECT on IL8” value in the test with IL-8 (STIMULATED) and with IL-8 (UNSTIMULATED) was “NE” throughout. In addition, the “EFFECT on PEPTIDOLEUKOTRIENES” value in the test with peptidoleukotrienes (STIMULATED) and in the test with peptidoleukotrienes (UNSTIMULATED) was “NE” each time. In addition, the “EFFECT on PLA2” value in the test with phospholipase A2 (STIMULATED) and in the test with phospholipase A2 (UNSTIMULATED) was “NE” throughout. Also, the “EFFECT on IL6” value with IL-6 (STIMULATED) and in the test with IL-6 (UNSTIMULATED) was “NE” throughout. In the test with PGE2 (Homo sapiens, Monocyte, STIMULATED, INHIB), this molecule yielded an EC50 of 2 µM. The “EFFECT on PGE2” value is given as “INHIB” with PGE2 (STIMULATED) and “NE” in the test on PGE2 (UNSTIMULATED).

In general, EC50 refers to the concentration giving half of the maximal effect.
